Test results as given in PubChem BioAssay (NCI).
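Five compound concentrations were applied to cells in 96-well plates for 48 hours; endpoints were derived by simple linear interpolation of the resulting dose-response curve. The concentration for full growth arrest is given as TGI.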

Columns and labels:
Assay in all cases: inhibition of tumour cell growth, NCI panel, 48 h
[1] = system: HL-60(TB) leukemia
[2] = system: HS 578T breast
[3] = system: HCT-15 colon
[4] = system: 786-0 renal
[5] = system: NCI/ADR-RES ovarian
[6] = system: HCC-2998 colon
[7] = system: U251 CNS
[8] = system: CAKI-1 renal
[9] = system: NCI-H522 lung
[10] = system: SF-539 CNS
[11] = system: SN12C renal

Compound | TGI [1] [µM] | TGI [2] [µM] | TGI [3] [µM] | TGI [4] [µM] | TGI [5] [µM] | TGI [6] [µM] | TGI [7] [µM] | TGI [8] [µM] | TGI [9] [µM] | TGI [10] [µM] | TGI [11] [µM]
CCN(CC)c1c(C(C)(C)C)c(=O)n2ccsc2c1OC(C)=O | > 100 | 42.8 | 30.7 | 34.1 | 28.4 | 32.2 | 30.8 | 33.1 | 27.7 | 33.3 | 32.6
NC(CCC(=O)c1ccccn1)C(=O)O (configuration not stated) | > 100 | > 100 | > 100 | > 100 | > 100 | > 100 | > 100 | > 100 | > 100 | > 100 | > 100
Nc1nc(Cl)c(CO)c(NCC2(CO)CCC2)n1 | > 100 | > 100 | > 100 | > 100 | > 100 | > 100 | > 100 | > 100 | > 100 | > 100 | > 100
COc1cc(/C=C(\C)[N+](=O)[O-])cc(OC)c1 | 4.33 | 68.6 | 29.9 | 8.95 | 39.8 | 55.5 | 32.1 | 27.8 | 3.64 | 16.9 | 31
COC(=O)c1ccccc1CC1Cc2c(C)ccc(C)c2C1=O (configuration not stated) | 55.6 | > 100 | > 100 | > 100 | 70.9 | > 100 | > 100 | > 100 | 58.1 | > 100 | > 100
CC(=O)O[C@H]1[C@@H](N2CCOCC2)C[C@H]2[C@@H]3CC=C4C[C@@H](N5CCCC5)CC[C@]4(C)[C@H]3CC[C@@]21C | > 100 | > 100 | > 100 | > 100 | > 100 | > 100 | > 100 | > 100 | > 100 | > 100 | > 100
O=CN1CCN(c2ccc3ccc(=O)[nH]c3n2)CC1 | > 100 | > 100 | > 100 | > 100 | > 100 | > 100 | > 100 | > 100 | > 100 | > 100 | > 100
